In the assay the test system is diabetic rats. Description: Anti-hyperglycemic activity evaluation, Streptozotocin (STZ) model. It is filed as in vivo, albino rats. The conditions noted are these: for Blood glucose level 5-day / Blood glucose level 10-day: mean ± SEM, n=6; for inhibition in vivo at 50 mg/kg: compound 50 mg/kg oral. The protocol:
Diabetes was experimentally generated in albino rats by intraperitoneal injection of a solution of STZ (60 mg/kg) in sterile normal saline. […] Rats were partitioned into 8 groups consisting of 6 rats in each group (n=6). The control group consisted of the first group of diabetic animals serving as vehicle control and treated orally with carboxymethylcellulose (CMC) (0.5%, 1 ml) alone; Group 2 of diabetic rats was treated with rosiglitazone 100 mg/kg. […] Blood collections were operated by tail vein sampling. The measurements of blood glucose were performed at 0, 5 and 10 days interval. Bayer's Contour TS system was used in order to monitor blood glucose level. In overnight-fasted rats, fasting blood glucose level was measured in all the groups as a base line at 0 time. All blood glucose data were expressed as mean±SEM. The analysis of the data including the variance analysis (ANOVA) and all mean comparisons were accomplished by Tukey-Kramer method. Results are regarded as significant when P<0.01. The anti-hyperglycemic activity (AA) was presented as % AA and computed as follows: % AA=100×[blood glucose level (0-day)−blood glucose level (10-day)]/[blood glucose level (0-day)].

The mark [1] stands for this setting: Rattus norvegicus, 240 h, % AA=100×[glucose (0-day)−glucose (10-day)]/[glucose (0-day)].
Where [2] appears, read: compound 50 mg/kg oral for 7 continuous days.

The term inhibition in vivo denotes the share of the control response that was lost under treatment.

Regarding `CN(CCOc1ccc(CC2SC(=O)NC2=O)cc1)c1ccccn1` (stereo not drawn) [Rosiglitazone, reference compound], the inhibition in vivo at 100 mg/kg (Rattus norvegicus, po, 240 h, rosiglitazone 100 mg/kg, % AA=100×[glucose (0-day)−glucose (10-day)]/[glucose (0-day)]) came out at 62%. Under “rosiglitazone 100 mg/kg”, the “Blood glucose level 5-day” value worked out at 162.1 ± 3.8 mg/dL and the “Blood glucose level 10-day” value is reported as 129.7 ± 3.7 mg/dl.
For the molecule `O=C(CCOc1ccc(C=C2C(=O)NNC2=O)cc1)Nc1nc2ccc(C(F)(F)F)cc2s1` [Compound 9, 3-(4-((3,5-dioxopyrazolidin-4-ylidene)methyl)phenoxy)-N-(6-(trifluoromethyl)benzo[d]thiazol-2-yl)propanamide], under setting [1], 50 mg/kg produced 70.1% inhibition in vivo. In addition, under setting [2], the “Blood glucose level 5-day” value was determined as 159.6 ± 4.6 mg/dL and the “Blood glucose level 10-day” value is given as 105.4 ± 3.2 mg/dl.
For `Cc1cc2nc(NC(=O)CCOc3ccc(C=C4C(=O)NNC4=O)cc3)sc2cc1Cl` [Compound 11, N-(6-chloro-5-methylbenzo[d]thiazol-2-yl)-3-(4-((3,5-dioxopyrazolidin-4-ylidene)methyl)phenoxy)propanamide], the inhibition in vivo at 50 mg/kg under setting [1] was 68.4%. Under setting [2], the “Blood glucose level 5-day” value amounted to 168.7 ± 3.4 mg/dL and the “Blood glucose level 10-day” value came to 107.0 ± 2.4 mg/dl.
Take `O=C(COc1ccc(C=C2C(=O)NNC2=O)cc1)Nc1nc2ccc(Cl)cc2s1` [Compound 1, N-(6-chlorobenzo[d]thiazol-2-yl)-2-(4-((3,5-dioxopyrazolidin-4-ylidene)methyl)phenoxy)acetamide]: 50 mg/kg produced 63.5% inhibition in vivo under setting [1]. Moreover, under setting [2], the “Blood glucose level 5-day” value was 157.5 ± 3.7 mg/dL and the “Blood glucose level 10-day” value was 123.9 ± 4.2 mg/dl.
Under setting [1], `Cc1c(Cl)ccc2nc(NC(=O)CCOc3ccc(C=C4C(=O)NNC4=O)cc3)sc12` [Compound 13, N-(6-chloro-7-methylbenzo[d]thiazol-2-yl)-3-(4-((3,5-dioxopyrazolidin-4-ylidene)methyl)phenoxy)propanamide] yielded an inhibition in vivo at 50 mg/kg of 65.5%. Under setting [2], the “Blood glucose level 5-day” value amounted to 168.4 ± 4.3 mg/dL and the “Blood glucose level 10-day” value was determined as 119.1 ± 4.3 mg/dl.
The molecule `Cc1cc2nc(NC(=O)COc3ccc(C=C4C(=O)NNC4=O)cc3)sc2cc1Cl` [Compound 4, N-(6-chloro-5-methylbenzo[d]thiazol-2-yl)-2-(4-((3,5-dioxopyrazolidin-4-ylidene)methyl)phenoxy)acetamide] yielded an inhibition in vivo at 50 mg/kg under setting [1] of 66.4%. Further, under setting [2], the “Blood glucose level 5-day” value amounted to 160.2 ± 4.1 mg/dL and the “Blood glucose level 10-day” value was determined as 113.4 ± 2.6 mg/dl.
`CCc1cc2nc(NC(=O)COc3ccc(C=C4C(=O)NNC4=O)cc3)sc2cc1Cl` [Compound 5, N-(6-chloro-5-ethylbenzo[d]thiazol-2-yl)-2-(4-((3,5-dioxopyrazolidin-4-ylidene)methyl)phenoxy)acetamide] gave an inhibition in vivo at 50 mg/kg under setting [1] of 62.8%. In addition, under setting [2], the “Blood glucose level 5-day” value came to 155.3 ± 3.9 mg/dL and the “Blood glucose level 10-day” value was found to be 127.1 ± 3.1 mg/dl.
For `O=C(COc1ccc(C=C2C(=O)NNC2=O)cc1)Nc1nc2c(Cl)cc(F)cc2s1` [Compound 7, N-(4-chloro-6-fluorobenzo[d]thiazol-2-yl)-2-(4-((3,5-dioxopyrazolidin-4-ylidene)methyl)phenoxy)acetamide], at 50 mg/kg the inhibition in vivo under setting [1] was 66.3%. In addition, under setting [2], the “Blood glucose level 5-day” value was 174.1 ± 4.2 mg/dL and the “Blood glucose level 10-day” value is 115.2 ± 4.2 mg/dl.
With `O=C(COc1ccc(C=C2C(=O)NNC2=O)cc1)Nc1nc2ccc(OC(F)(F)F)cc2s1` [Compound 3, 2-(4-((3,5-dioxopyrazolidin-4-ylidene)methyl)phenoxy)-N-(6-(trifluoromethoxy)benzo[d]thiazol-2-yl)acetamide], the inhibition in vivo at 50 mg/kg under setting [1] worked out at 59.5%. Under setting [2], the “Blood glucose level 5-day” value amounted to 172.4 ± 3.4 mg/dL and the “Blood glucose level 10-day” value amounted to 141.6 ± 2.8 mg/dl.
Under setting [1], `O=C(CCOc1ccc(C=C2C(=O)NNC2=O)cc1)Nc1nc2ccc(OC(F)(F)F)cc2s1` [Compound 10, 3-(4-((3,5-dioxopyrazolidin-4-ylidene)methyl)phenoxy)-N-(6-(trifluoromethoxy)benzo[d]thiazol-2-yl)propanamide] gave an inhibition in vivo at 50 mg/kg of 69.8%. For the same molecule, under setting [2], the “Blood glucose level 5-day” value worked out at 153.2 ± 4.2 mg/dL and the “Blood glucose level 10-day” value came to 105.2 ± 4.7 mg/dl.
Consider `CCc1cc2nc(NC(=O)CCOc3ccc(C=C4C(=O)NNC4=O)cc3)sc2cc1Cl` [Compound 12, N-(6-chloro-5-ethylbenzo[d]thiazol-2-yl)-3-(4-((3,5-dioxopyrazolidin-4-ylidene)methyl)phenoxy)propanamide], for which, under setting [1], testing at 50 mg/kg gave an inhibition in vivo of 64.2%. Under setting [2], the “Blood glucose level 5-day” value is 171.6 ± 5.1 mg/dL and the “Blood glucose level 10-day” value turned out to be 121.9 ± 3.6 mg/dl.
In turn, `O=C(CCOc1ccc(C=C2C(=O)NNC2=O)cc1)Nc1nc2ccc(Cl)cc2s1` [Compound 8, N-(6-chlorobenzo[d]thiazol-2-yl)-3-(4-((3,5-dioxopyrazolidin-4-ylidene)methyl)phenoxy)propanamide] displayed an inhibition in vivo at 50 mg/kg under setting [1] of 68.7%. Under setting [2], the “Blood glucose level 5-day” value is 166.5 ± 3.7 mg/dL and the “Blood glucose level 10-day” value was 106.1 ± 5.1 mg/dl.
`O=C(CCOc1ccc(C=C2C(=O)NNC2=O)cc1)Nc1nc2c(Cl)cc(F)cc2s1` [Compound 14, N-(4-chloro-6-fluorobenzo[d]thiazol-2-yl)-3-(4-((3,5-dioxopyrazolidin-4-ylidene)methyl)phenoxy)propanamide] showed an inhibition in vivo at 50 mg/kg under setting [1] of 68.9%. Further, under setting [2], the “Blood glucose level 5-day” value amounted to 162.5 ± 5.6 mg/dL and the “Blood glucose level 10-day” value was 109.6 ± 5.4 mg/dl.
Under setting [1], `O=C(COc1ccc(C=C2C(=O)NNC2=O)cc1)Nc1nc2ccc(C(F)(F)F)cc2s1` [Compound 2, 2-(4-((3,5-dioxopyrazolidin-4-ylidene)methyl)phenoxy)-N-(6-(trifluoromethyl)benzo[d]thiazol-2-yl)acetamide] returned an inhibition in vivo at 50 mg/kg of 64.3%. Moreover, under setting [2], the “Blood glucose level 5-day” value was 163.7 ± 2.8 mg/dL and the “Blood glucose level 10-day” value turned out to be 123.4 ± 3.5 mg/dl.
The like results for `Cc1c(Cl)ccc2nc(NC(=O)COc3ccc(C=C4C(=O)NNC4=O)cc3)sc12` [Compound 6, N-(6-chloro-7-methylbenzo[d]thiazol-2-yl)-2-(4-((3,5-dioxopyrazolidin-4-ylidene)methyl)phenoxy)acetamide] were, in that order, 58.6%, 161.3 ± 4.5 mg/dL and 143.9 ± 5.3 mg/dl.

(Values after patent US11958847B1, “Pyrazolidinedione derivatives and their use as PPAR-gamma inhibitors” (KING FAISAL UNIVERSITY, priority 2023, dated 2024).)
